Results: patent US4705854A, “Phenothiazine compounds” (priority 1984, dated 1987)
Like-named read-outs stand apart in the source and are kept apart here.

What was measured:
[1] = target: T1, longitudinal muscle from the intact ileum of guinea-pigs (histamine) (Cavia porcellus, UniProt P31389); experiment: In vitro antihistamine activity: shift of histamine concentration-response curves (Schild plot), isolated guinea-pig ileum longitudinal muscle; assay type: cell-based; details: vs histamine, one hour incubation with test compound, 60 min
T1 construct: The longitudinal muscle was isolated from the intact ileum of guinea-pigs; from tissue; host or cells: longitudinal muscle of guinea-pig ileum (Hartley, male)
Method: A. In vitro antihistamine activity: The longitudinal muscle was isolated from the intact ileum of guinea-pigs (Hartley, male 250-400 g) and placed in an organ bath under 300 mg tension. After one hour of equilibration, cumulative concentration-response curves (Van Rossum, J. M., Arch. Int. Pharmacodyn. Ther. 143, 299-330, 1963) to histamine were obtained. Following washing, the tissues were incubated for one hour with the test compound and then a second histamine concentration-response curve was run. Shifts to the right of the agonist concentration-response curve produced by the antagonists were used to construct Schild plots (Arunlakshana, O. and Schild, H. O., Br. J. Pharmacol. 14, 48-58, 1959). Regression of Log (dr-l) on Log [B], where dr is an equiactive response in the presence and absence of antagonist and [B] is the molar concentration of antagonist, allowed an estimate of pA2, i.e. the negative log of the concentration of antagonist which shifts the control histamine concentration response curve 2X to the right.

[2] = cited from earlier work
[3] = background statement on promethazine; cited from earlier work

T1 sequence (P31389 whole entry): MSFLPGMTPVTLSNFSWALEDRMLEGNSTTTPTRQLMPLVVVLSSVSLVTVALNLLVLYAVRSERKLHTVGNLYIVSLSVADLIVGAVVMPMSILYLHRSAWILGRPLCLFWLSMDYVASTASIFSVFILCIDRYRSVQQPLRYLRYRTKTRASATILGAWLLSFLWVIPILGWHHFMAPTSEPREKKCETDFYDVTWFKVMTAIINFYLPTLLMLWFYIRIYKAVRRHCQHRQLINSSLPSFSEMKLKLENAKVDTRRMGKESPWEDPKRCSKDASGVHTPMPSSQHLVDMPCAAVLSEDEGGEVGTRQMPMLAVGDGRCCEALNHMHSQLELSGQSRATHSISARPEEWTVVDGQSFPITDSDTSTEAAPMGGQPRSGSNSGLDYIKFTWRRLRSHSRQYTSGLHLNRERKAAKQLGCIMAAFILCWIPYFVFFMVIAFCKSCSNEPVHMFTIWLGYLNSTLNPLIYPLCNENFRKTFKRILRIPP

Structure (SMILES): CN(C)CCCN1c2ccccc2Sc2ccc(S(=O)(=O)O)cc21 [Example 2, 10-(3'-N,N-Dimethylaminopropyl)phenothiazine-2-sulphonic acid hemihydrate]
- pA2 [1]: 7.8

Structure (SMILES): CC(CN1c2ccccc2Sc2ccccc21)N(C)C (centres unmarked) [promethazine, 10-(2-dimethylaminopropyl)phenothiazine]
- sedation or drowsiness ([2]; in some patients, antihistamines now in use): cause sedation or drowsiness in some patients
- anticholinergic activity [3]: potent anticholinergic activity

Structure (SMILES): COc1ccc(CN(CCN(C)C)c2ccccn2)cc1 [pyrilamine]
- sedation or drowsiness ([2]; in vivo): cause sedation or drowsiness in some patients

Structure (SMILES): Cc1ccc(/C(=C\CN2CCCC2)c2ccccn2)cc1 [triprolidine]
- sedation or drowsiness ([2]; in vivo): cause sedation or drowsiness in some patients
